30 compounds from ChEMBL document CHEMBL5046245, “Identification of Pyruvate Carboxylase as the Cellular Target of Natural Bibenzyls with Potent Anticancer Activity against Hepatocellular Carcinoma via Metabolic Reprogramming” (J Med Chem, 2022) can be followed below.

Test [1] is described as follows: Antiproliferative activity against human HCCLM3 cells assessed as inhibition of cell growth measured after 48 hrs by MTT assay. Conditions: HCCLM3, 48 h. It counts as functional, cell-based.
The test system of test [2] is HepG2. The test is described as follows: Antiproliferative activity against human HepG2 cells assessed as inhibition of cell growth measured after 48 hrs by MTT assay. Format: functional, cell-based. Particulars: HepG2, 48 h.
Test [3] can be described thus: Inhibition of pyruvate carboxylase in human HCCLM3 cell lysate measured upto 24 hrs by PC assay kit. Format: subcellular.
The subject of test [4] is HepG2. Put plainly: Cytotoxicity against human HepG2 cells assessed as cell viability at 8 nM incubated for 48 hrs by MTT assay. Format: functional, cell-based.
A short description of test [5]: Inhibition of pyruvate carboxylase in human HCCLM3 cells measured upto 24 hrs by PC assay kit. It counts as cell-based.
The subject of test [6] is HepG2. The test is described as follows: Cytotoxicity against human HepG2 cells assessed as cell viability at 1 to 4 nM incubated for 2 hrs by MTT assay. Format: functional, cell-based. Conditions: dose 1-4 nM. In general terms: Tetrazolium dyes change colour on reduction, which living cells bring about.
Test [7] deals with HepG2. Put plainly: Cytotoxicity against human HepG2 cells assessed as cell viability at 62.5 to 250 nM preincubated for 48 hrs by MTT assay. Format: functional, cell-based. Conditions: dose 62.5-250 nM.
Test [8] in a line: Non-competitive inhibition of pyruvate carboxylase (unknown origin). Also noted: species or system Homo sapiens.
Test [9] can be described thus: Competitive inhibition of pyruvate carboxylase (unknown origin) assessed as inhibition constant at varying concentrations of ATP. Also noted: species or system Homo sapiens.
Test [10] can be described thus: Inhibition of pyruvate carboxylase in human HepG2 cells measured upto 24 hrs by PC assay kit. It counts as cell-based.
Test [11] is described as follows: Inhibition of pyruvate carboxylase in human HepG2 cell lysate measured upto 24 hrs by PC assay kit. Format: subcellular.
Test [12] deals with HepG2. The test is described as follows: Competitive inhibition of recombinant pyruvate carboxylase in human HepG2 cell lysate in presence of Erianin at 20 uM for 120 mins followed by irradiation of 365 nm UV light for 15 min by Native -PAGE analysis. It counts as subcellular.

Calls of active or inactive are those of the source. The calls are words filed in the database; no cut-off is given here.

One may read the IC50 as the concentration needed to halve the response being measured. Usually Ki stands for the equilibrium dissociation constant of an inhibitor or competing ligand from its target.

`COc1cc(O)cc2c1-c1c(O)cccc1C[C@@H]2O`: the results for the IC50 (in [1]; in the test with HepG2 [2]; in [3]) were over 100 µM, over 100 µM and over 50 µM, respectively.

Consider `COc1ccc(CC(CCNC(=O)[C@H](CCCCNC(=O)CCCC[C@@H]2SC[C@@H]3NC(=O)N[C@@H]32)NC(=O)CCC2(C)N=N2)c2cc(OC)c(OC)c(OC)c2)cc1O` (some centres not stated), for which the outcome in the test with HepG2 [4] was inactive.

Turning to `COc1cc(O)cc2c1-c1c(O)cccc1[C@@H](O)C2`, the IC50 in [5] is 0.047 µM; in [1], over 100 µM; in the test with HepG2 [2], 2.58 µM; in test [3] it was 0.264 µM.

For the compound `COc1cc(O)cc2c1-c1c(O)cccc1CC2` [HIRCINOL], the results for the IC50 (in test [1]; in the test with HepG2 [2]; in test [3]) were over 100 µM, over 100 µM and over 50 µM, respectively.

For the compound `COc1ccc(CC(CCOC(=O)CCCCCNC(=O)CCCC[C@@H]2SC[C@@H]3NC(=O)N[C@@H]32)c2cc(OC)c(OC)c(OC)c2)cc1O` (some centres not stated), the result in the test on HepG2 [6] was inactive.

Consider `COc1cc(O)cc(CCc2ccc(O)c(OC)c2)c1` [GIGANTOL], for which the IC50 is over 50 µM in test [5], 57.9 µM in [1], 1.88 µM in the test on HepG2 [2] and 0.125 µM in [3].

Take `COc1ccc(CC(O)c2cc(OC)c(OC)c(OC)c2)cc1O` (configuration not stated): in the test on HepG2 [7], the result was Active.

On to `Nc1ncnc2c1ncn2[C@@H]1O[C@@H]2CO[P@@](=O)(O)O[C@H]3[C@@H](O)[C@H](n4cnc5c(N)ncnc54)O[C@@H]3CO[P@@](=O)(O)O[C@H]2[C@H]1O`, for which, in test [8], the Ki amounted to 0.7 µM.

For the compound `N[C@@H](CC(=O)O)C(=O)O` [ASPARTIC ACID], the Ki in test [9] is 0.7 µM.

For the compound `COc1cc(O)cc(CCc2ccc(OC)c(O)c2)c1`, the figures for the IC50 (in [1]; with HepG2 [2]; in [3]) were over 100 µM, over 100 µM and over 50 µM, respectively.

Take `COc1ccc(CC(CCNC(=O)COCCOCCOCCNC(=O)[C@H](CCCCNC(=O)CCCC[C@@H]2SC[C@@H]3NC(=O)N[C@@H]32)NC(=O)CCC2(C)N=N2)c2cc(OC)c(OC)c(OC)c2)cc1O` (some centres not stated): in the test with HepG2 [4], the outcome was inactive.

Consider `COc1cc(O)c2c(c1)CCc1cccc(O)c1-2`, for which the IC50 in test [5] was found to be 0.104 µM; in [1] it was 8.54 µM; in the test with HepG2 [2] it was 1.74 µM; in test [3], 0.204 µM.

Consider `COc1cc(CCc2cc(O)c(OC)c(OC)c2)ccc1O`, for which the IC50 in [1] was over 100 µM; in the test on HepG2 [2] it was 1.09 µM; in [3], over 50 µM.

Turning to `COc1ccc(CC(CCO)c2cc(OC)c(OC)c(OC)c2)cc1O` (configuration not stated), in the test with HepG2 [4], the outcome was inactive. The result in the test on HepG2 [7] was Active.

For the compound `OC[C@H]1O[C@@H](Oc2cccc3c2-c2c(O)cc(O)cc2C[C@H]3O)[C@H](O)[C@@H](O)[C@@H]1O`, the IC50 is over 100 µM in test [1], over 6.42 µM in the test with HepG2 [2] and over 50 µM in test [3].

In the case of `COc1ccc(CCc2cc(OC)c(OC)c(OC)c2OCCOC(=O)CCCCCNC(=O)CCCC[C@@H]2SC[C@@H]3NC(=O)N[C@@H]32)cc1O`, the result in the test with HepG2 [6] was inactive.

Take `COc1ccc(CC(CCNC(=O)[C@H](CCCCNC(=O)CCC2(C)N=N2)NC(=O)CCCC[C@@H]2SC[C@@H]3NC(=O)N[C@@H]32)c2cc(OC)c(OC)c(OC)c2)cc1O` (some centres not stated): in the test with HepG2 [4], the result was inactive.

In the case of `COc1ccc(/C=C/c2cc(O)cc(O[C@@H]3O[C@H](CO)[C@@H](O)[C@H](O)[C@H]3O)c2)cc1O` [RHAPONTIN], the IC50 in test [1] was over 100 µM; in the test with HepG2 [2] it was over 100 µM; in test [3] it was over 50 µM.

Consider `O=C(O)CC(=O)C(=O)O` [OXALOACETATE], for which the IC50 in [5] was 0.1 µM; in test [10] it was 0.1 µM; in [3], 0.0888 µM; in [11] it was 0.0888 µM.

For the compound `COc1cc(O[C@@H]2O[C@H](CO)[C@@H](O)[C@H](O)[C@H]2O)cc2ccc3cccc(O)c3c12`, the IC50 in test [5] came to 0.097 µM; in test [1], 29.9 µM; in the test with HepG2 [2] it was 2.66 µM; in [3] it was 0.065 µM.

Take `COc1cc(CCc2cc(OC)c(O)c(OC)c2)ccc1O` [MOSCATILIN]: the IC50 came out at 0.034 µM in test [5], 2.09 µM in test [1], 3.02 µM in the test with HepG2 [2] and 0.191 µM in test [3].

Take `COc1cc(O)cc2c1-c1c(O)cc(O)cc1C[C@@H]2O`: the IC50 was over 100 µM in test [1], over 100 µM with HepG2 [2] and over 50 µM in [3].

Turning to `COc1ccc(CC(CCNC(=O)[C@H](CCCCNC(=O)CCCC[C@@H]2SC[C@@H]3NC(=O)N[C@@H]32)NC(=O)c2ccc(N=[N+]=[N-])cc2)c2cc(OC)c(OC)c(OC)c2)cc1O` (some centres not stated), the outcome with HepG2 [4] was inactive.

For `COc1cc(O)cc2c1-c1c(O)cc(O)cc1[C@@H](O)C2`, the half-inhibitory concentration (IC50) in [1] was over 100 µM; in the test on HepG2 [2], over 100 µM; in test [3] it was over 50 µM.

For `COc1ccc(CC(CCNC(=O)[C@H](CCCCNC(=O)c2ccc(N=[N+]=[N-])cc2)NC(=O)CCCC[C@@H]2SC[C@@H]3NC(=O)N[C@@H]32)c2cc(OC)c(OC)c(OC)c2)cc1O` (some centres not stated), in the test on HepG2 [4], the outcome was inactive.

As for `COc1ccc(CC(CCNC(=O)COCCOCCOCCNC(=O)[C@H](CCCCNC(=O)CCCC[C@@H]2SC[C@@H]3NC(=O)N[C@@H]32)NC(=O)c2ccc(N=[N+]=[N-])cc2)c2cc(OC)c(OC)c(OC)c2)cc1O` (some centres not stated), the outcome in the test on HepG2 [4] was inactive.

The compound `CCCCCCCCOC(=O)c1cc(O)c(O)c(O)c1` [OCTYL_GALLATE] registered a Ki in test [8] of 0.7 µM.

Regarding `COc1ccc(CC(CCNC(=O)[C@H](CCCCNC(=O)CCC2(C)N=N2)N=[N+]=[N-])c2cc(OC)c(OC)c(OC)c2)cc1O` (some centres not stated), the inhibition result with HepG2 [12] was “Active”.

For the compound `COc1ccc(CC(CCNC(=O)CNC(=O)[C@H](CCCCNC(=O)CCCC[C@@H]2SC[C@@H]3NC(=O)N[C@@H]32)NC(=O)c2ccc(N=[N+]=[N-])cc2)c2cc(OC)c(OC)c(OC)c2)cc1O` (some centres not stated), the outcome in the test with HepG2 [4] was inactive.

Take `COc1cc(O[C@@H]2O[C@H](CO)[C@@H](O)[C@H](O)[C@H]2O)cc2c1-c1c(O)cccc1[C@H](O)C2`: the IC50 in test [1] is over 100 µM; in the test on HepG2 [2], over 100 µM; in [3], over 50 µM.
